In patent publication US6767890B1, “Peptides having anti-cancer and anti-inflammatory activity” (priority 1998, dated 2004):

Columns and labels:
[1] = target: T1, Protease - Elastase (Homo sapiens, UniProt P08246); experiment: Protease - Elastase enzyme assay; format: biochemical; conditions: 30.0 μM; average of duplicate; negative = stimulation
T1 construct: neutrophils; endogenous in cells; host or cells: human neutrophils
Procedure: (§1) The peptide was further screened in vitro in a variety of enzyme and biochemical assays. Methods employed were adapted from the scientific literature to maximize reliability and reproducibility. The primary literature reference for each assay is listed in Table 11 opposite the results for each assay.
(§2) Results presented in Table 10, “Results,” are the average of duplicate determinations, unless otherwise noted.
Reference compounds were tested concurrently at 5 concentrations as an integral part of each assay to ensure the validity of the results obtained.
Enzyme assays were performed under conditions described in Table 8, “Experimental Conditions.”. The commercial suppliers and catalog numbers of substrates employed in this study are given in Table 7, “Material Sources.” The name, commercial source, and catalog numbers of concurrent reference compounds (controls) employed in this study are given in Table 9, “Reference Compound Data.” The reaction catalyzed by each enzyme is listed in Table 8, “Experimental Conditions.”
Biochemical assay results are presented in Table 10, as the percent inhibition of specific binding or activity, and unless noted are the average of duplicate tubes tested at each concentration.

[2] = target: T2, Interleukin-1α (Mus musculus, UniProt P13504); experiment: Interleukin-1α radioligand binding; conditions: 10.0 μM; specific binding of [125I]IL-1 alpha; negative = stimulation
T2 construct: 3T3 cells; endogenous in cells; host or cells: Swiss 3T3 cells
T2 sequence (P13504 20-576): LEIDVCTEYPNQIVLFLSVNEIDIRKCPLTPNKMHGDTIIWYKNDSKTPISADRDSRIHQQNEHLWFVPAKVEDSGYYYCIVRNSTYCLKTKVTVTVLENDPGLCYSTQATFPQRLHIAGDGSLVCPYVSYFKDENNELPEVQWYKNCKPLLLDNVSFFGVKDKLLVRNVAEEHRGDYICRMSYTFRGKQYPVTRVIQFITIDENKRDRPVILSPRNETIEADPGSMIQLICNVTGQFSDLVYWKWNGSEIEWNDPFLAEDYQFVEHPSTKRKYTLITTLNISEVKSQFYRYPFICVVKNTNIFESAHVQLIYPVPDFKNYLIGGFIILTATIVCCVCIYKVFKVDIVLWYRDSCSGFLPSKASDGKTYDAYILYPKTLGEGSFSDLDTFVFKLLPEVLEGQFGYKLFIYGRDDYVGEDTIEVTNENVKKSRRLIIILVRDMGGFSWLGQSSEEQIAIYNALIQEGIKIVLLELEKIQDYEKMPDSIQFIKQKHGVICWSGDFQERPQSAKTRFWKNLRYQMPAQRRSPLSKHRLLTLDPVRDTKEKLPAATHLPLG
Procedure: as §1, §2
Reference compounds were tested concurrently at 5 concentrations as an integral part of each assay to ensure the validity of the results obtained. […]
Maximum total binding and nonspecific binding were determined each time each assay was run. […]
Where inhibition constants (Ki) are presented, the Ki values were calculated using the equation of Cheng and Prusoff (Cheng, Y., Prusoff, W. H., Biochem. Pharmacol. […], 1973) using the observed IC50 of the tested compound, the concentration of radioligand employed in the assay, and the historical values for the Kd of the ligand (obtained experimentally). Where presented, the Hill Coefficient (nH), defining the scope of the competitive binding curve, was calculated using GraphPad Prism. […] Where IC50, Ki, and/or Hill Slope data is presented without Standard Error of the Mean (SEM), data are insufficient to be quantitative, and the values presented (Ki, IC50, nH) should be interpreted with caution. […]

T1 sequence (P08246 30-267): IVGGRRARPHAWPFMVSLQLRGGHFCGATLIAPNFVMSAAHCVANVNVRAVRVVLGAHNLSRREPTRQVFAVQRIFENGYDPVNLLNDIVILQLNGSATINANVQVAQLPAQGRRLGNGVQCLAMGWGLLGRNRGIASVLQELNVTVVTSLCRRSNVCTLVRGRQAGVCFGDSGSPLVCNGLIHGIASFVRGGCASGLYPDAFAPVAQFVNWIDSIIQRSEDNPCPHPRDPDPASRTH

## LEU-PRO-PRO-SER-ARG [Peptide]
[1]
  % Inhibition: −11%
[2]
  % Inhibition: 15%
